Experimental data from ChEMBL document CHEMBL2311520, “Total synthesis of AMF-26, an antitumor agent for inhibition of the Golgi system, targeting ADP-ribosylation factor 1” (J Med Chem, 2013).
Blank lines part the entries; values can stand above or below the compound they belong to. The source made the active and inactive calls. The calls are words filed in the database; no cut-off is given here.

Experiments:
[1] = Induction of golgi disassembly in human HBC4 cells assessed as presence of GBF1 in cytoplasm after 1 hr by immunofluorescence microscopy; type: functional, cell-based
[2] = Induction of golgi disassembly in human BSY1 cells assessed as presence of GBF1 in cytoplasm after 1 hr by immunofluorescence microscopy; type: functional, cell-based; conditions: bsy-1
HBC4 [3] = assay: Induction of golgi disassembly in human HBC4 cells assessed as presence of GBF1 in cytoplasm at 10 uM after 1 hr by immunofluorescence microscopy; type: functional, cell-based
BSY-1 [4] = assay: Induction of golgi disassembly in human BSY1 cells assessed as presence of GBF1 in cytoplasm at 1 uM after 1 hr by immunofluorescence microscopy; type: functional, cell-based
[5] = Growth inhibition of human HBC4 cells after 48 hrs by Sulforhodamine B assay; type: functional; conditions: Homo sapiens, HBC4, 48 h
[6] = Growth inhibition of human BSY1 cells after 48 hrs by Sulforhodamine B assay; type: functional; conditions: BSY-1, 48 h
HBC4 [7] = assay: Induction of golgi disassembly in human HBC4 cells assessed as presence of GBF1 in cytoplasm at 0.1 to 1 uM after 1 hr by immunofluorescence microscopy; type: functional, cell-based
BSY-1 [8] = assay: Induction of golgi disassembly in human BSY1 cells assessed as presence of GBF1 in cytoplasm at 0.1 to 1 uM after 1 hr by immunofluorescence microscopy; type: functional, cell-based
PC-3 = assay: Growth inhibition of human PC3 cells after 48 hrs by Sulforhodamine B assay; type: functional; conditions: PC-3, 48 h, read-out: pGI50 (converted)
DU-145 = assay: Growth inhibition of human DU145 cells after 48 hrs by Sulforhodamine B assay; type: functional; conditions: DU-145, 48 h, read-out: pGI50 (converted)
MKN-74 = assay: Growth inhibition of human MKN74 cells after 48 hrs by Sulforhodamine B assay; type: functional; conditions: MKN-74, 48 h, read-out: pGI50 (converted)
MKN-7 = assay: Growth inhibition of human MKN7 cells after 48 hrs by Sulforhodamine B assay; type: functional; conditions: MKN-7, 48 h, read-out: pGI50 (converted)
MKN-28 = assay: Growth inhibition of human MKN28 cells after 48 hrs by Sulforhodamine B assay; type: functional; conditions: MKN-28, 48 h, read-out: pGI50 (converted)
St-4 = assay: Growth inhibition of human St-4 cells after 48 hrs by Sulforhodamine B assay; type: functional; conditions: St-4, 48 h, read-out: pGI50 (converted)
[9] = Growth inhibition of human RXF631L cells after 48 hrs by Sulforhodamine B assay; type: functional; conditions: RXF 631, 48 h, read-out: pGI50 (converted)
ACHN = assay: Growth inhibition of human ACHN cells after 48 hrs by Sulforhodamine B assay; type: functional; conditions: read-out: pGI50 (converted)
SK-OV-3 = assay: Growth inhibition of human SKOV3 cells after 48 hrs by Sulforhodamine B assay; type: functional; conditions: SK-OV-3, 48 h, read-out: pGI50 (converted)
OVCAR-3 = assay: Growth inhibition of human OVCAR3 cells after 48 hrs by Sulforhodamine B assay; type: functional; conditions: OVCAR-3, 48 h, read-out: pGI50 (converted)
OVCAR-5 = assay: Growth inhibition of human OVCAR5 cells after 48 hrs by Sulforhodamine B assay; type: functional; conditions: OVCAR-5, 48 h, read-out: pGI50 (converted)
LOX IMVI = assay: Growth inhibition of human LOXIMVI cells after 48 hrs by Sulforhodamine B assay; type: functional
DMS-114 = assay: Growth inhibition of human DMS114 cells after 48 hrs by Sulforhodamine B assay; type: functional; conditions: DMS-114, 48 h, read-out: pGI50 (converted)
A549 = assay: Growth inhibition of human A549 cells after 48 hrs by Sulforhodamine B assay; type: functional; conditions: A549, 48 h, read-out: pGI50 (converted)
DMS-273 = assay: Growth inhibition of human DMS273 cells after 48 hrs by Sulforhodamine B assay; type: functional; conditions: DMS-273, 48 h, read-out: pGI50 (converted)
NCI-H460 = assay: Growth inhibition of human NCI-H460 cells after 48 hrs by Sulforhodamine B assay; type: functional; conditions: NCI-H460, 48 h, read-out: pGI50 (converted)
NCI-H522 = assay: Growth inhibition of human NCI-H522 cells after 48 hrs by Sulforhodamine B assay; type: functional; conditions: NCI-H522, 48 h, read-out: pGI50 (converted)
NCI-H23 = assay: Growth inhibition of human NCI-H23 cells after 48 hrs by Sulforhodamine B assay; type: functional; conditions: NCI-H23, 48 h, read-out: pGI50 (converted)
HCT-116 = assay: Growth inhibition of human HCT116 cells after 48 hrs by Sulforhodamine B assay; type: functional; conditions: HCT-116, 48 h, read-out: pGI50 (converted)
HCT-15 = assay: Growth inhibition of human HCT15 cells after 48 hrs by Sulforhodamine B assay; type: functional; conditions: HCT-15, 48 h, read-out: pGI50 (converted)
SNB-78 = assay: Growth inhibition of human SNB-78 cells after 48 hrs by Sulforhodamine B assay; type: functional; conditions: SNB-78, 48 h, read-out: pGI50 (converted)
[10] = Growth inhibition of human HCC2998 cells after 48 hrs by Sulforhodamine B assay; type: functional; conditions: HCC 2998, 48 h, read-out: pGI50 (converted)
SF-539 = assay: Growth inhibition of human SF539 cells after 48 hrs by Sulforhodamine B assay; type: functional; conditions: SF-539, 48 h, read-out: pGI50 (converted)
SF-295 = assay: Growth inhibition of human SF295 cells after 48 hrs by Sulforhodamine B assay; type: functional; conditions: SF-295, 48 h, read-out: pGI50 (converted)
U-251 = assay: Growth inhibition of human U251 cells after 48 hrs by Sulforhodamine B assay; type: functional; conditions: U-251, 48 h, read-out: pGI50 (converted)
SF-268 = assay: Growth inhibition of human SF268 cells after 48 hrs by Sulforhodamine B assay; type: functional; conditions: SF-268, 48 h, read-out: pGI50 (converted)
MCF7 = assay: Growth inhibition of human MCF7 cells after 48 hrs by Sulforhodamine B assay; type: functional; conditions: MCF7, 48 h, read-out: pGI50 (converted)
[11] = Growth inhibition of human HBC5 cells after 48 hrs by Sulforhodamine B assay; type: functional; conditions: HBC5, 48 h, read-out: pGI50 (converted)
MKN-45 = assay: Growth inhibition of human MKN45 cells after 48 hrs by Sulforhodamine B assay; type: functional; conditions: MKN-45, 48 h
[12] = Growth inhibition of human MKN1 cells after 48 hrs by Sulforhodamine B assay; type: functional; conditions: MKN-1, 48 h
OVCAR-4 = assay: Growth inhibition of human OVCAR4 cells after 48 hrs by Sulforhodamine B assay; type: functional; conditions: OVCAR-4, 48 h
OVCAR-8 = assay: Growth inhibition of human OVCAR8 cells after 48 hrs by Sulforhodamine B assay; type: functional; conditions: OVCAR-8, 48 h
NCI-H226 = assay: Growth inhibition of human NCI-H226 cells after 48 hrs by Sulforhodamine B assay; type: functional; conditions: NCI-H226, 48 h
KM12 = assay: Growth inhibition of human KM12 cells after 48 hrs by Sulforhodamine B assay; type: functional; conditions: KM12, 48 h
HT-29 = assay: Growth inhibition of human HT-29 cells after 48 hrs by Sulforhodamine B assay; type: functional; conditions: HT-29, 48 h
SNB-75 = assay: Growth inhibition of human SNB75 cells after 48 hrs by Sulforhodamine B assay; type: functional; conditions: SNB-75, 48 h
MDA-MB-231 = assay: Growth inhibition of human MDA-MB-231 cells after 48 hrs by Sulforhodamine B assay; type: functional; conditions: MDA-MB-231, 48 h

- EC50 [1]: > 10000 nM
- EC50 [2]: > 10000 nM
Compound: C[C@@H]1[C@@H](O)[C@H](C)C[C@@H]2C=C[C@H](C)[C@H](/C=C/C(=O)NCc3cccnc3)[C@@H]12
- Activity (HBC4 [3]): inactive
- Activity (BSY-1 [4]): inactive
- GI50 ([5]; read-out: GI50): > 10000 nM
- GI50 ([6]; read-out: GI50): > 10000 nM

- EC50 [1]: 340 nM
- EC50 [2]: 850 nM
Compound: CC/C(=C\C=C\[C@@H]1[C@H]2[C@H](C)[C@@H](O)[C@H](C)C[C@@H]2C=C[C@@H]1C)C(=O)NCc1cccnc1
- Activity (HBC4 [7]): Active
- Activity (BSY-1 [8]): Active
- GI50 ([5]; read-out: GI50): 550 nM
- GI50 ([6]; read-out: GI50): 190 nM

- GI50 (PC-3): 46.8 nM
- GI50 (DU-145): 219 nM
- GI50 (MKN-74): 81.3 nM
- GI50 (MKN-7): 66.1 nM
- GI50 (MKN-28): 83.2 nM
- GI50 (ACHN): 81.3 nM
- GI50 (SK-OV-3): 44.7 nM
- GI50 (OVCAR-3): 46.8 nM
- GI50 (OVCAR-5): 41.7 nM
- GI50 (A549): 51.3 nM
- GI50 (NCI-H460): 174 nM
- GI50 (NCI-H522): 191 nM
- GI50 (NCI-H23): 60.3 nM
- GI50 (HCT-116): 74.1 nM
- GI50 (HCT-15): 126 nM
- GI50 (U-251): 70.8 nM
- GI50 (MCF7): 47.9 nM
- GI50 (MKN-45; read-out: GI50): 27.5 nM
- GI50 (MKN-45; read-out: pGI50 (converted)): 27.5 nM
- GI50 (OVCAR-4; read-out: GI50): 34.7 nM
- GI50 (OVCAR-4; read-out: pGI50 (converted)): 34.7 nM
- GI50 (OVCAR-8; read-out: GI50): 37.2 nM
- GI50 (OVCAR-8; read-out: pGI50 (converted)): 37.1 nM
- GI50 (NCI-H226; read-out: GI50): 30.9 nM
- GI50 (NCI-H226; read-out: pGI50 (converted)): 30.9 nM
- GI50 (HT-29; read-out: GI50): 33.9 nM
- GI50 (HT-29; read-out: pGI50 (converted)): 33.9 nM
- GI50 (MDA-MB-231; read-out: GI50): 22.9 nM
- GI50 (MDA-MB-231; read-out: pGI50 (converted)): 22.9 nM
Compound: C/C(=C\C=C\[C@@H]1[C@H]2[C@H](C)[C@@H](O)[C@H](C)C[C@@H]2C=C[C@@H]1C)C(=O)NCc1cccnc1 (stereo in doubt; form 2)
- GI50 (St-4): 214 nM
- GI50 [9]: 112 nM
- GI50 (LOX IMVI; read-out: GI50): 33.1 nM
- GI50 (LOX IMVI; read-out: pGI50 (converted)): 33.1 nM
- GI50 (DMS-114): 52.5 nM
- GI50 (DMS-273): 79.4 nM
- GI50 (SNB-78): 58.9 nM
- GI50 [10]: 47.9 nM
- GI50 (SF-539): 58.9 nM
- GI50 (SF-295): 100 nM
- GI50 (SF-268): 51.3 nM
- GI50 [11]: 41.7 nM
- GI50 ([5]; read-out: logGI50 (converted)): 46.8 nM
- GI50 ([12]; read-out: GI50): 36.3 nM
- GI50 ([12]; read-out: pGI50 (converted)): 36.3 nM
- GI50 (KM12; read-out: GI50): 35.5 nM
- GI50 (KM12; read-out: pGI50 (converted)): 35.5 nM
- GI50 (SNB-75; read-out: GI50): 30.2 nM
- GI50 (SNB-75; read-out: pGI50 (converted)): 30.2 nM
- GI50 ([6]; read-out: GI50): 18.2 nM
- GI50 ([6]; read-out: pGI50 (converted)): 18.2 nM
